Laboratory results reported in patent US8685928B2, “Antagonists of MUC1” (Dana-Farber Cancer Institute, Inc., priority 2010, dated 2014).
Non-standard residues stand in square brackets, D forms with d. Residues, ends and D or L forms follow the SMILES beside them.

Tests used:
[1] = system: COLO-205 colon carcinoma xenograft; experiment: COLO-205 colon carcinoma xenograft model, daily IP; assay type: in vivo, mouse; conditions: for Tumor response: 30 mg/kg IP daily for 28 days
Experimental: (§1) Efficacy of GO-203-2, the reduced form of GO-203-2c that is responsible for binding to and inhibiting oligomerization of MUC1-CD was evaluated in several different human tumor xenograft models. For these studies BALB/c nu/nu mice (6-7 weeks old; Charles River Laboratories, Wilmington, Mass.) were injected with 10 million COLO-205 colon carcinoma, MiaPaCa pancreatic carcinoma or SKOV3 ovarian carcinoma cells in the right thigh. When tumors reached a predetermined size (80-125 mm^3), mice were randomized into groups of 8 animals and treatment was initiated, which consisted of daily IP injection of GO-203-2 (30 mg/kg), control peptide CP-2 (30 mg/kg) or PBS vehicle control for 28 days. Mice with tumors in excess of ˜2 g or with ulcerated tumors were euthanized, as were those found in obvious distress or in a moribund condition. Mice without palpable tumors were maintained until 90 to 100 days after treatment initiation to confirm lack of re-growth. In addition, animals were weighed periodically during the treatment period and examined for clinical signs of toxicity.

[2] = system: SKOV3 ovarian carcinoma xenograft; experiment: SKOV3 ovarian carcinoma xenograft model, daily IP; assay type: in vivo, mouse; conditions: for Tumor response: 30 mg/kg IP daily for 28 days
Experimental: as §1

[3] = system: MiaPaCa pancreatic carcinoma xenograft; experiment: MiaPaCa pancreatic carcinoma xenograft model, daily IP; assay type: in vivo, mouse; conditions: for Tumor response: 30 mg/kg IP daily for 28 days
Experimental: as §1

[4] = Clinical signs of toxicity in xenograft-bearing mice; assay type: in vivo, mouse; conditions: 30 mg/kg IP daily for 28 days
Experimental: as §1

[5] = system: H1975 Lung cancer cells; experiment: Inhibition of cell proliferation, trypan blue exclusion (Table 2); assay type: cell-based, human; conditions: 5 μM peptide every day, 6-day treatment
Experimental: (§2) Cells (ZR-75-1 breast carcinoma or H-1975 non-small cell lung carcinoma) were plated separately in 24-well plates for 24 hours prior to treatment with different peptides. The cells were then treated with 5 μM (final concentration) of different peptides every day for 4-6 days. On the day of termination, cells were washed two times with PBS and trypsinized with 0.3 ml of Trypsin/EDTA. Cell growth media was used to stop the trypsin reaction. Following washing, the cells were centrifuged and the cell pellets were re-suspended in PBS for counting in hemacytometer.
(§3) The trypan blue dye exclusion method was used to determine the number of viable cells present in a cell suspension. Cell suspension was mixed as 1:1 with the trypan blue dye and then visually examined in a hemacytometer. A viable cell will have a clear cytoplasm whereas a non-viable/dead cell will be stained with trypan blue dye. By doing this trypan blue exclusion method, viable cell numbers were counted and percent inhibition of proliferation was then calculated comparing with untreated controls.

[6] = target: T1, His-tagged MUC1-CD (Homo sapiens, UniProt P15941); experiment: Oligomerization of purified His-tagged MUC1-CD proteins in a cell-free system; assay type: biochemical
T1 construct: contains a 72-amino acid cytoplasmic domain (MUC1-CD)
T1 sequence (P15941 1182-1255 limits assumed): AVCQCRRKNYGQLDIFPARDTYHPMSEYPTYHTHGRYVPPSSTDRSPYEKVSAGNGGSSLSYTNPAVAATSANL
From the text: This finding is not surprising based on a requirement for the cysteine residues in the GO-203-2 binding domain (CQCRRKN) to be available for binding with cysteine residues on the corresponding binding domain of the MUC1-CD protein.

[7] = system: MUC1-CD; experiment: MUC1-CD oligomerization in transfected HEK 293T cells, species comparison; assay type: cell-based; conditions: MUC1-CD from rat, dog and human compared
Experimental: (§4) Studies were also conducted to confirm pharmacological relevance of the rodent and nonrodent species chosen for toxicology studies, namely the rat and dog, respectively. MUC1-CD amino acid sequence was determined to be greater than 80% identical between rat, dog and human proteins, and similar expression of MUC1 was found in stomach, intestinal and lung epithelium from the different species using immunohistochemical staining. […] The results of these studies indicate that potential MUC1-CD targets in the rat, dog and human are similar with respect to sequence, tissue expression and responsiveness to inhibition of oligomerization by GO-203-2c, and confirm pharmacological relevance of the species chosen for nonclinical safety assessment of GO-203-2c.

[8] = target: T2, norepinephrine transporter (Homo sapiens, UniProt P23975); experiment: biochemical
T2 sequence (P23975 whole entry, species assumed): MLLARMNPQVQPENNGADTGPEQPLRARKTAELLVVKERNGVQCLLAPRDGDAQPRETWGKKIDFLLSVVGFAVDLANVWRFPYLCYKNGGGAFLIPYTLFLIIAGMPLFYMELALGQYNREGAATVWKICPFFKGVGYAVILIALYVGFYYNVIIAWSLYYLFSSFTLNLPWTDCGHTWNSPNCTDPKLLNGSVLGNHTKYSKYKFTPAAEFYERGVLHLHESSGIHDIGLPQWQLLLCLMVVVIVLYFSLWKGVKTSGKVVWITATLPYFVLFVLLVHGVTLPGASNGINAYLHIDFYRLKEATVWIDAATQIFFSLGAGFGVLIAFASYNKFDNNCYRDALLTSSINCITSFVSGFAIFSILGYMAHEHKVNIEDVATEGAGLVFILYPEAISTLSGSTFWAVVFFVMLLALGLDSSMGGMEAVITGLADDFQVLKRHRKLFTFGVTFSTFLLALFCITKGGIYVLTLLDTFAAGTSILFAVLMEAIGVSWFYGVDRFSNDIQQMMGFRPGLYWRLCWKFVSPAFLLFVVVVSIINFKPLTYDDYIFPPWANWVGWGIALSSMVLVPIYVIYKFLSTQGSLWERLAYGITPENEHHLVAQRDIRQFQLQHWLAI

[9] = target: adrenergic α1A receptor (Homo sapiens, UniProt P35348); experiment: biochemical
Sequence of adrenergic α1A receptor (P35348 whole entry): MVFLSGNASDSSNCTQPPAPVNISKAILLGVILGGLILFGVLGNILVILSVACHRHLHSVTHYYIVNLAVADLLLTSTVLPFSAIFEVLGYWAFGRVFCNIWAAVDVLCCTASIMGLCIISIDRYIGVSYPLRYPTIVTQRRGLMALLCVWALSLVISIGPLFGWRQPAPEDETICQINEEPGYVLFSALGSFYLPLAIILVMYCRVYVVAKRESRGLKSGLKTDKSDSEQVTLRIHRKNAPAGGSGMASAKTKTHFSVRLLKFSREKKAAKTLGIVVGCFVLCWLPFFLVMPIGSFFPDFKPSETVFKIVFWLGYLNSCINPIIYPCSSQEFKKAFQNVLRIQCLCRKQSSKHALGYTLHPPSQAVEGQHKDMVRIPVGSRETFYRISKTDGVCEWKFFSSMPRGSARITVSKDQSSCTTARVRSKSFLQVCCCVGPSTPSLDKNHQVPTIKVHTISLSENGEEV

[10] = target: adrenergic α1B receptor (Homo sapiens, UniProt P35368); experiment: biochemical
Sequence of adrenergic α1B receptor (P35368 whole entry): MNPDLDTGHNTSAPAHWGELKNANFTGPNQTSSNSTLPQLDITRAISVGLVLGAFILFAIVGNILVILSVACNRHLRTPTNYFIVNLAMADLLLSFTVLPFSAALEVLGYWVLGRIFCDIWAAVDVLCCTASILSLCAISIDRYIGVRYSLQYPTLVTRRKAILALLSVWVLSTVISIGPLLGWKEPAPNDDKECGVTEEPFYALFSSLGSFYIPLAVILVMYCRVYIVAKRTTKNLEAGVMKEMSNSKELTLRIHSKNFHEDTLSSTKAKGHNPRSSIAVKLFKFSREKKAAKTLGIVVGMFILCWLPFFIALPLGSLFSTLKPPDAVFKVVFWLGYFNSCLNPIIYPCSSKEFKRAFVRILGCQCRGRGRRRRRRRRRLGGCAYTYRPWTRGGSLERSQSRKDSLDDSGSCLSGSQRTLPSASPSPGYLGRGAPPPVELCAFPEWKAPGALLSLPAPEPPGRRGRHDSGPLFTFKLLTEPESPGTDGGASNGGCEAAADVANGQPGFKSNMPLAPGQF

[11] = system: ZR-75-1 Breast cancer cells; experiment: Inhibition of cell proliferation, trypan blue exclusion (Table 1); assay type: cell-based, human; conditions: 5 μM peptide every day, 6-day treatment
Experimental: as §2, §3

[12] = target: nicotinic acetylcholine α1 (bungarotoxin) receptor (Homo sapiens, UniProt P02708+P07510+Q07001); experiment: biochemical
Sequence of nicotinic acetylcholine α1 (bungarotoxin) receptor (P07510 23-517): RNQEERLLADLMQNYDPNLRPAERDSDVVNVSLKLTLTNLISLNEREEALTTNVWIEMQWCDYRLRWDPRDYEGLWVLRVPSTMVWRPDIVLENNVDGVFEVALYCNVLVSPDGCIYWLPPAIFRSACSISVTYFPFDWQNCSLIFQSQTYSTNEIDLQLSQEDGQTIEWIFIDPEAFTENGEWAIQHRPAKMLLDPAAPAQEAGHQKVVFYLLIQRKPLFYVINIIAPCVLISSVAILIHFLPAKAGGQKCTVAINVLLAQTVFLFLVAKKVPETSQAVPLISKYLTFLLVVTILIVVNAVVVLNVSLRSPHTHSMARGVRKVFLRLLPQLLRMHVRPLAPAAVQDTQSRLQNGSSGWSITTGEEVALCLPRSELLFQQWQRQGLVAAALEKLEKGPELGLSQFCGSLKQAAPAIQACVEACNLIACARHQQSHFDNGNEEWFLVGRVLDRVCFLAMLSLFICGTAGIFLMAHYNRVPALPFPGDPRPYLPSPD
Sequence of nicotinic acetylcholine α1 (bungarotoxin) receptor (P02708 21-457): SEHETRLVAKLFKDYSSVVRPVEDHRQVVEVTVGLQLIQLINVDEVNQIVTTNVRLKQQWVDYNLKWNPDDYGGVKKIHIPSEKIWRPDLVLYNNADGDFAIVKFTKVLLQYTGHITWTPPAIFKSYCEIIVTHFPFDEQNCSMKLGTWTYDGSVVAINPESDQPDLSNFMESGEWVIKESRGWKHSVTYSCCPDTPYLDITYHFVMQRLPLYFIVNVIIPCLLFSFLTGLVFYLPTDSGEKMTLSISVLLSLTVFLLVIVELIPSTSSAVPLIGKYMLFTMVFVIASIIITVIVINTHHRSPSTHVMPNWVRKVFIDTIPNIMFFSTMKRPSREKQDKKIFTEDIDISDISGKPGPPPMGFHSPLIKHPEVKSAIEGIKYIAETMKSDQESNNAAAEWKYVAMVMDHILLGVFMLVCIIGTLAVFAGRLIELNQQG
Sequence of nicotinic acetylcholine α1 (bungarotoxin) receptor (Q07001 22-517): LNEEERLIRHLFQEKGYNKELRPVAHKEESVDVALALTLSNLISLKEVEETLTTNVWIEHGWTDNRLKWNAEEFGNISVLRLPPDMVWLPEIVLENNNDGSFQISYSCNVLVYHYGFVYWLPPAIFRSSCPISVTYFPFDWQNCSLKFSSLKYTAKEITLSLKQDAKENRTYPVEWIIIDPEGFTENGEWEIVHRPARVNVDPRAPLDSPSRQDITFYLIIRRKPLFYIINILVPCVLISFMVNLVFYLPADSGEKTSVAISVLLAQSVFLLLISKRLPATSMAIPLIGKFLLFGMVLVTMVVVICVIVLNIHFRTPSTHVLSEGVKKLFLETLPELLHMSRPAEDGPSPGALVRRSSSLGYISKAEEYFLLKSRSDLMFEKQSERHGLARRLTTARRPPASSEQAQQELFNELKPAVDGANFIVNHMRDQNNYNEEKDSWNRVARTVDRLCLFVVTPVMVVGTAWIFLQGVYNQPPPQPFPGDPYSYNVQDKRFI
Sequence of nicotinic acetylcholine α1 (bungarotoxin) receptor (P11230 24-501, further chain): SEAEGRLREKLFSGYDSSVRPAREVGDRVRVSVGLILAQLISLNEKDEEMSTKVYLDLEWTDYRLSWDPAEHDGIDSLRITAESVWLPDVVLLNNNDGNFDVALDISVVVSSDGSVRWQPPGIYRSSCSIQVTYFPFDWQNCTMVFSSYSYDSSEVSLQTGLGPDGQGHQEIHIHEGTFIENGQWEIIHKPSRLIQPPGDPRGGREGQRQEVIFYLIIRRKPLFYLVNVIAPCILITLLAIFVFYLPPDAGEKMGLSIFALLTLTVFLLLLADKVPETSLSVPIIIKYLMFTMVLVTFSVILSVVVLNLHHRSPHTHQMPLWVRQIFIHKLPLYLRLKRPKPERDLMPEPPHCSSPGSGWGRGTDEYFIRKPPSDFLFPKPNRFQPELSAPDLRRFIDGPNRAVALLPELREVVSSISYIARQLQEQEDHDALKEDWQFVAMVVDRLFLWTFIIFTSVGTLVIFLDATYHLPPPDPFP

[13] = system: human carcinoma cell lines
Experimental: A series of in vitro and in vivo primary pharmacodynamic studies was conducted to assess efficacy and mechanism of action of GO-203-2c in human tumor cells.
GO-203-2 and GO-203-2c were evaluated for ability to inhibit proliferation of murine and human carcinoma cell lines in vitro. Test compound (5 μM final concentration) was added to tumor cell cultures daily for 5 to 6 days, and cell viability was determined by trypan blue dye exclusion.

[14] = system: His-tagged MUC1-CD; experiment: Cell-free oligomerization of purified His-tagged MUC1-CD, species comparison; assay type: biochemical; conditions: MUC1-CD from rat, dog and human compared
Experimental: as §4

[15] = target: T3, muscarinic M2 receptor (Homo sapiens, UniProt P08172); experiment: biochemical
T3 sequence (P08172 whole entry): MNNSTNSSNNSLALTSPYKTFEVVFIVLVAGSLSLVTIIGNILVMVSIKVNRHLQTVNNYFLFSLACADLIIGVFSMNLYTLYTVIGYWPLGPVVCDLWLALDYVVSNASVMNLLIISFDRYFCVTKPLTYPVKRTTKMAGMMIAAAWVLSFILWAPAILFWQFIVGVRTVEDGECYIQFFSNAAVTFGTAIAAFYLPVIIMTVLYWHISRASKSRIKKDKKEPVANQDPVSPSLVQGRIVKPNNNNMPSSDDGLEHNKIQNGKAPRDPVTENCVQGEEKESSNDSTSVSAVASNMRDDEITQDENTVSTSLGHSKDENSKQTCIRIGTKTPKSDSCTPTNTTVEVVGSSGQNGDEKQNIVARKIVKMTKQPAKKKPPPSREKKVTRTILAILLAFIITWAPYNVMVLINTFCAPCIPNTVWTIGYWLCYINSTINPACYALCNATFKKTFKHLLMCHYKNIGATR

[16] = target: T2, norepinephrine transporter; conditions: at a concentration of 10 μM
[17] = target: T3, muscarinic M2 receptor; conditions: at a concentration of 10 μM
[18] = system: ZR-75-1 human breast carcinoma xenograft; experiment: ZR-75-1 human breast carcinoma xenograft model, daily dosing for 21 days; assay type: in vivo, mouse; conditions: 4 mg/kg IV daily for 21 days, nu/nu mice
Experimental: Efficacy of GO-203-2c was evaluated in a ZR-75-1 human breast carcinoma xenograft model. Female nu/nu mice (20-30 g; Charles River Laboratories, Wilmington, Mass.) were injected in the thigh with 5 million ZR-75-1 cells in Matrigel suspension. Mice also received subcutaneous 17-β-estradiol pellets. When tumors reached 100-200 mm^3 in size (approximately 12-15 days after implantation), mice were split into 4 groups of 5 mice and administered the following treatments daily for 21 days: phosphate-buffered saline (PBS) IP, 1 mg/kg GO-203-2c IV, 4 mg/kg GO-203-2c IV or 4 mg/kg control peptide CP-3 IV. Each animal was sacrificed when the tumor reached the predetermined endpoint size (˜2500 mm^3) or when the animals remained tumor-free for 180 days after implantation of the tumor cells.

[19] = up to 90 to 100 days post treatment initiation

With `C[C@@H](NC(=O)[C@@H](CCC(N)=O)NC(=O)[C@@H](C)NC(=O)[C@@H](CCCNC(=N)N)NC(=O)[C@@H](CCCNC(=N)N)NC(=O)[C@@H](CCCNC(=N)N)NC(=O)[C@@H](CCCNC(=N)N)NC(=O)[C@@H](CCCNC(=N)N)NC(=O)[C@@H](CCCNC(=N)N)NC(=O)[C@@H](CCCNC(=N)N)NC(=O)[C@@H](CCCNC(=N)N)NC(=O)[C@H](N)CCCNC(=N)N)C(=O)N[C@H](CCCNC(=N)N)C(=O)N[C@H](CCCNC(=N)N)C(=O)N[C@H](CCCCN)C(=O)N[C@H](CC(N)=O)C(=O)O` [CP-2, reference compound] (H-[dR][dR][dR][dR][dR][dR][dR][dR][dR][dA][dQ][dA][dR][dR][dK][dN]-OH) the Tumor response [1] was “without effect”, the Tumor response [2] was “without effect” and the Tumor response [3] was “without effect”. For the same molecule, the “Side effects of treatment (weight, clinical signs of toxicity)” value [4] was “no observable side effects”.
In the case of `CC(=O)N[C@H](CCCNC(=N)N)C(=O)N[C@H](CCCNC(=N)N)C(=O)N[C@H](CCCNC(=N)N)C(=O)N[C@H](CCCNC(=N)N)C(=O)N[C@H](CCCNC(=N)N)C(=O)N[C@H](CCCNC(=N)N)C(=O)N[C@H](CCCNC(=N)N)C(=O)N[C@H](CCCNC(=N)N)C(=O)N[C@H](CCCNC(=N)N)C(=O)N[C@H](CS)C(=O)N[C@H](CCC(N)=O)C(=O)N[C@H](CS)C(=O)N[C@H](CCCNC(=N)N)C(=O)N[C@H](CCCNC(=N)N)C(=O)N[C@H](CCCCN)C(=O)N[C@H](CC(N)=O)C(N)=O` [GO-203-2] (Ac-[dR][dR][dR][dR][dR][dR][dR][dR][dR][dC][dQ][dC][dR][dR][dK][dN]-NH2), the Tumor response [1] is reported as “complete tumor growth arrest and regression”, the Recurrence of tumors [1, 19] is reported as “no evidence of recurrence” and the “Avg (viable cell number of Groups 1-3)” value [5] is reported as 6.66. The “% inhibition” value ([5]; vs untreated control) was 63.64%, the “Group-1 (viable cell number, individual well)” value ([5]; well having 10,000 cells) was 6.23 and the “Group-2 (viable cell number, individual well)” value ([5]; well having 10,000 cells) was 6.34. The “Group-3 (viable cell number, individual well)” value ([5]; well having 10,000 cells) was 7.42, the “Inhibition of MUC1-CD oligomerization, reduced vs oxidized form” value [6] was “much more effective” and the Tumor response [2] was “complete tumor growth arrest and regression”. For the same molecule, the Recurrence of tumors [2, 19] was “no evidence of recurrence”, the Tumor response [3] was “complete growth arrest and regression” and the Recurrence of tumors [3, 19] was “no evidence of recurrence”. The “Inhibition of MUC1-CD oligomerization” value [7] was “in an equivalent manner”, the IC50 [8] was 3 to 8 µM and the IC50 [9] was 3 to 8 µM. The IC50 [10] was 3 to 8 µM, the “Avg (viable cell number of Groups 1-3)” value [11] was 8.06 and the “% inhibition” value ([11]; vs untreated control) was 65.49%. The “Group-1 (viable cell number, individual well)” value ([11]; well having 10,000 cells) was 7.14, the “Group-2 (viable cell number, individual well)” value ([11]; well having 10,000 cells) was 9.38 and the “Group-3 (viable cell number, individual well)” value ([11]; well having 10,000 cells) was 7.67. The IC50 [12] was 3 to 8 µM, the “50% inhibition (IC50) of proliferation” value [13] was 5 to 11 µg/mL and the IC50 [13] was 2 to 5 µM. For the same molecule, the “Inhibition of oligomerization of purified His-tagged MUC1-CD” value [14] was “inhibited”, the IC50 [15] was 3 to 8 µM and the “Side effects of treatment (weight, clinical signs of toxicity)” value [4] was “no observable side effects”.
In the case of “CP-3: control peptide containing AQA instead of CQC amino acid sequence in the binding domain (RRRRRRRRRCQCRRKN) [reference compound]”, the “% inhibition of radioligand binding” value [16] is reported as 79%, the “% inhibition of radioligand binding” value [17] is reported as 55% and the Tumor response [18] is reported as “ineffective”. For the same molecule, the Tumor response ([18]; listed as CP3) was “no effect on tumor growth”.
